The record followed here is patent US6713265B1 (Synaptic Pharmaceutical Corporation, priority 1999, dated 2004).

Several values for one entry are separate records, joined by “and”; a condition that tells them apart may be missing. Equal values may be shown once. Where a name gives a salt, the structure may show the parent alone.

In assay [1] the test system is NPY-induced feeding behavior. The assay is described as follows: NPY-induced food intake in satiated rats. Type of assay: in vivo, rat. To be noted: for Food intake, NPY + compound: compound 10 mg/kg i.p. then 300 pmole NPY i.c.v., 4 hours. As to the method:
For these determinations food intake may be measured in normal satiated rats after intracerebroventricular application (i.c.v.) of NPY in the presence or absence of the test compound. Male Sprague Dawley rats (Ciba-Geigy AG, Sisseln, Switzerland) weighing between 180 g and 220 g are used for all experiments. The rats are individually housed in stainless steel cages and maintained on an 11:13 h light-dark cycle (lights off at 18:00 h) at a controlled temperature of 21-23° C. at all times. Water and food (NAFAG lab chow pellets NAFAG, Gossau, Switzerland) are available ad libidum.
Rats under pentobarbital anesthesia are stereotaxically implanted with a stainless steel guide cannula targeted at the right lateral ventricle. Stereotaxic coordinates, with the incisor bar set −2.0 mm below interaural line, are: −0.8 mm anterior and +1.3 mm lateral to bregma. The guide cannula is placed on the dura. Injection cannulas extend the guide cannulas −3.8 mm ventrally to the skull surface. Animals are allowed at least 4 days of recovery postoperatively before being used in the experiments. Cannula placement is checked postoperatively by testing all rats for their drinking response to a 50. ng intracerebroventricular (i.c.v.) injection of angiotensin II. Only rats which drink at least 2.5 ml of water within 30 min. after angiotensin II injection are used in the feeding studies.
All injections are made in the morning 2 hours after light onset. Peptides are injected in artificial cerebrospinal fluid (ACSF) in a volume of 5 μl. ACSF contains: NaCl 124 mM, KCl 3.75 mM, CaCl2 2.5 mM, MgSO4 2.0 mM, KH2PO4 0.22 mM, NaHCO3 26 mM and glucose 10 mM. Porcine-NPY (p-NPY) are dissolved in artificial cerebrospinal fluid (ACS). For i.c.v. injection the test compounds are preferably dissolved in DMSO/water (10%, v/v). The vehicle used for intraperitoneal (i.p.), subcutaneous (s.c.) or oral (p.o.) delivery of compounds is preferably water, physiological saline or DMSO/water (10% v/v), or cremophor/water (20% v/v), respectively.
Animals which are treated with both test compounds and porcine-NPY are treated first with the test compound.
Food intake may be measured by placing preweighed pellets into the cages at the time of NPY injection. Pellets are then removed from the cage subsequently at each selected time point and replaced with a new set of preweighed pellets. The food intake of animals treated with test compound may be calculated as a percentage of the food intake of control animals i.e., animals treated with vehicle. Alternatively, food intake for each group of animals subjected to a particular experimental condition may be expressed as the mean±S.E.M. Statistical analysis is performed by analysis of variance using the Student-Newman-Keuls test.
Food intake is reported as the mean±S.E.M. intake for a group of animals.

A further assay deals with food intake. The assay is described as follows: Food intake in food-deprived rats. It counts as in vivo, rat. To be noted: 30 mg/kg i.p., after 24h food deprivation.
The target in another assay is T1, α2c (Homo sapiens, UniProt P18825).
T1 sequence (P18825 1-462): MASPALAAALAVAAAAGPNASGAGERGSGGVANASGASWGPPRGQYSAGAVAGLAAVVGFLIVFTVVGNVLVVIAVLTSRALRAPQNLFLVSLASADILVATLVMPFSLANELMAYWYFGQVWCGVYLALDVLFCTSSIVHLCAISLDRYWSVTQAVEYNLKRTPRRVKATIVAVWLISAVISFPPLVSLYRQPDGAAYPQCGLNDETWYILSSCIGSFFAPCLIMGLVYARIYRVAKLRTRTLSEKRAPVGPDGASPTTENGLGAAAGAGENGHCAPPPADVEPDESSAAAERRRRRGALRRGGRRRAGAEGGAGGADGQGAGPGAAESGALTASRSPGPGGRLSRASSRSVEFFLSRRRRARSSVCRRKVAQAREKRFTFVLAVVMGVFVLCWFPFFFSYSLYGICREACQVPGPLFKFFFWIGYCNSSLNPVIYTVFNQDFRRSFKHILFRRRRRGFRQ
The assay is described as follows: Binding at cloned human α2c adrenergic receptor.

The next assay addresses T2, human Y1 receptor (Homo sapiens, UniProt P25929).
T2 construct: expressed in transfected cells; host or cells: COS-7 (transient)
T2 sequence (P25929 1-384): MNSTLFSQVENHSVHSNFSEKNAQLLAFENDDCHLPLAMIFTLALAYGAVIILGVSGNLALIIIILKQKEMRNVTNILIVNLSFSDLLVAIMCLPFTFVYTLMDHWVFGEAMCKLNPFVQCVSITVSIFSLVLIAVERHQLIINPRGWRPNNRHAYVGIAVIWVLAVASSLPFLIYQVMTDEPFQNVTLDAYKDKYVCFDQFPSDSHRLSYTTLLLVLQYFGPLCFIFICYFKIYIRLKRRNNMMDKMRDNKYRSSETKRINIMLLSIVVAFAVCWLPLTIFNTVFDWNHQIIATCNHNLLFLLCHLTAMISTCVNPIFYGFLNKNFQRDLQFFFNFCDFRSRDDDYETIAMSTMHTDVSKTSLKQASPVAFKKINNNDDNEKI
The assay is described as follows: ^125I-PYY binding to membranes, cloned human Y1 receptor. To be noted: read-out: Binding Affinity Ki vs. ^125I-PYY, Human Receptor Y1; Table 14; stably transfected 293 cells (compound 1 also COS-7).

Another assay has as its target T3, human Y4 receptor (Homo sapiens, UniProt P50391).
T3 construct: expressed in transfected cells; host or cells: COS-7 (transient)
The assay is described as follows: ^125I-PYY binding to membranes, cloned human Y4 receptor. Particulars: read-out: Binding Affinity Ki vs. ^125I-PYY, Human Receptor Y4; Table 14; stably transfected LM(tk-) cells.

For assay [2], the target named is T4, human Y5 receptor (Homo sapiens, UniProt Q15761).
T4 sequence (Q15761 1-445): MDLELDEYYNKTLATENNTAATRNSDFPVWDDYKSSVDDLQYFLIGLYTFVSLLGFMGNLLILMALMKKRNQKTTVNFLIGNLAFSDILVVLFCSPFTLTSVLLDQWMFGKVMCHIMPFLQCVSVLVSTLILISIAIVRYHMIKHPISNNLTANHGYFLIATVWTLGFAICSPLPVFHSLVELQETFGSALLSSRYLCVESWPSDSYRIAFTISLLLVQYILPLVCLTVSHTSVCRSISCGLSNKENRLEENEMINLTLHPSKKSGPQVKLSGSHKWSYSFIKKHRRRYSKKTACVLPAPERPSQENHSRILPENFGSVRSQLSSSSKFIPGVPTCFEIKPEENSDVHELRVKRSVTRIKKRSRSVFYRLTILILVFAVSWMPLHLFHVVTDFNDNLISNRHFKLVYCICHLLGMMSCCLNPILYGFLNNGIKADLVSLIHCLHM
The assay is described as follows: Radioligand binding to membranes of cells expressing cloned human Y5 receptor. On the set-up: Ki Values, Human Y5; apparent Kd; pKd; The isolated clone (CG-19) turned out to contain a full length cDNA; The longest open reading frame encodes a 455 amino acid protein. Particulars: read-out: Binding Affinity Ki vs. ^125I-PYY, Human Receptor Y5; Table 14; stably transfected LM(tk-) cells.

The next assay has as its target T5, human Y2 receptor (Homo sapiens, UniProt P49146).
T5 construct: expressed in transfected cells; host or cells: COS-7 (transient)
T5 sequence (P49146 1-381): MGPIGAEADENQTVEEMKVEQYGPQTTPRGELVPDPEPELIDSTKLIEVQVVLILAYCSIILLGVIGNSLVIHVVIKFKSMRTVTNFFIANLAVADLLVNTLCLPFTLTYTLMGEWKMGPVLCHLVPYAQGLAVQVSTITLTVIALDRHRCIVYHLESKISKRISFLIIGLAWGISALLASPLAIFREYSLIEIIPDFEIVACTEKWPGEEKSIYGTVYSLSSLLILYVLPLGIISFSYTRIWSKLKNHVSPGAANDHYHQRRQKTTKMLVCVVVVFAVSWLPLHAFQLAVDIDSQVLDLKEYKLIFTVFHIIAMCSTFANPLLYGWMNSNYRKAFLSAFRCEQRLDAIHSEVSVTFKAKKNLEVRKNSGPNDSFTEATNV
The assay is described as follows: ^125I-PYY binding to membranes, cloned human Y2 receptor. To be noted: read-out: Binding Affinity Ki vs. ^125I-PYY, Human Receptor Y2; Table 14; stably transfected 293 cells (compound 1 also COS-7).

Assay [3] has as its target T4, human Y5 receptor. Put plainly: Radioimmunoassay of cAMP, cells stably expressing human Y5 receptor. The arrangement: Ki Values, Human Y5; apparent Kd; pKd; The isolated clone (CG-19) turned out to contain a full length cDNA; The longest open reading frame encodes a 455 amino acid protein. It counts as cell-based. Particulars: block of NPY-induced inhibition of cAMP accumulation, forskolin-stimulated LM(tk-) cells, human Y5. (In general: cAMP levels reflect the balance of adenylyl cyclase and phosphodiesterase activity.)
Description: LM(tk-) cells stably transfected with the human Y5 receptor were routinely converted from an adherent monolayer to a viable suspension. […] The cell suspension was maintained in a shaking incubator at 37° C., 5% CO2 for 24 hours. […] Alternatively, cells may be returned to adherent cell culture in complete DMEM by distribution into 96-well microtiter plates coated with poly-D-lysine (0.01 mg/ml) followed by incubation at 37° C., 5% CO2 for 24 hours.
The maximum inhibition of cAMP accumulation (Emax) and the concentration producing a half-maximal effect (EC50) were determined by nonlinear regression analysis according to a 4 parameter logistic equation.
The ability of the compounds to antagonize the Y-type receptors is reported as the Kb. […] The results shown are representative of at least three independent experiments.

T3 sequence (P50391 whole entry): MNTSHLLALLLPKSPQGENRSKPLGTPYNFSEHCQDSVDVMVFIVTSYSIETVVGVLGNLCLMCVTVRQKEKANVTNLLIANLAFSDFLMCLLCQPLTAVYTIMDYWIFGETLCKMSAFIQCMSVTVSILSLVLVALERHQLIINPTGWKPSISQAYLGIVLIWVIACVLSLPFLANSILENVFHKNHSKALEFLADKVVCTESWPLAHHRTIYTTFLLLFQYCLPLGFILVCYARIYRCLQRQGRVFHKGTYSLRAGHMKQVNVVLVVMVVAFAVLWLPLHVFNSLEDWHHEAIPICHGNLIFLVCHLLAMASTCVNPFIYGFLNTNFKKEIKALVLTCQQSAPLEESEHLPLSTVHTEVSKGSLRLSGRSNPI

As for `c1ccc(Nc2nc(Nc3ccccc3)c3ccccc3n2)cc1` [Compound 1, 2,4-Diphenylamino-guinazoline hydrochloride], the “Food intake, NPY + compound” value in assay [1] (mean ± S.E.M.) worked out at 4.6 ± 0.6 g.
For `Nc1nc(NCCCCCCNS(=O)(=O)c2cccc3ccccc23)nc2ccccc12` [Compound 2, Naphthalene-1-sulfonic acid [6-(4-amino-quinazolin-2-ylamino)-hexyl]-amide], the “Two-hour food intake of food-deprived rats, percentage of intake compared to control rats, Mean” value in the assay on food intake is reported as 42%.
As for `Cl.Nc1nc(NC[C@H]2CC[C@H](CNS(=O)(=O)c3cccc4ccccc34)CC2)nc2ccccc12` [Compound 5, trans-Naphthalene-1-sulfonic acid {4-[(4-amino-quinazolin-2-ylamino)-methyl]-cyclohexylmethyl}-amide hydrochloride], in assay [1] (mean ± S.E.M.), the “Food intake, NPY + compound” value is 4.1 ± 0.4 g.
Turning to `Cl.Cl.c1ccc(Nc2nc(Nc3ccc(N4CCCCC4)cc3)nc3ccccc23)cc1` [Compound 6, 2-[4-(Piperidin-1-yl)-phenylamino]-4-Phenylamino-quinazoline dihydrochloride], the “Two-hour food intake of food-deprived rats, percentage of intake compared to control rats, Mean” value with food intake stood at 38%. For the same molecule, at α2c, the Ki is 0.447 µM.
On to `CC(=O)O[C@H]1CC[C@H](Nc2nc(Nc3ccccc3)c3ccccc3n2)CC1.Cl` [Compound 7, trans-2-(4-Acetoxy-cyclohexylamino)-4-Phenylamino-quinazoline hydrochloride], for which the “Two-hour food intake of food-deprived rats, percentage of intake compared to control rats, Mean” value in the assay on food intake came out at 47%.
The same measure, in the same setting: under `COc1ccc(Nc2nc(Nc3ccccc3)c3cccc(OC)c3n2)cc1.Cl` [Compound 9, 8-Methoxy-2-(4-methoxy-phenylamino)-4-phenylamino-quinazoline hydrochloride] stands 40%.
The same measure, in the same setting: the figure for `CNS(=O)(=O)Cc1ccc(Nc2nc(Nc3ccccc3)c3cc(OC)ccc3n2)cc1` [Compound 10, N-Methyl-[4-(6-methoxy-4-phenylamino-quinazolin-2-ylamino)-phenyl1-methanesulfonamide hydrochloride] is 74%.
Turning to `CNS(=O)(=O)Cc1ccc(Nc2nc(Nc3ccccc3)c3ccccc3n2)cc1.Cl` [Compound 11, N-Methyl-[4-(4-Phenylamino-quinazolin-2-ylamino)-phenyl]-methanesulfonamide hydrochloride], in the assay with food intake, the “Two-hour food intake of food-deprived rats, percentage of intake compared to control rats, Mean” value worked out at 15%.
As to `Cl.O=S(=O)(NC[C@H]1CC[C@H](CNCc2ccc3ccccc3c2)CC1)c1ccccc1C(F)(F)F` [Compound 21], the Ki on human Y1 receptor came to 13 µM; at human Y4 receptor it was 18.5 µM; on human Y5 receptor [2], 0.0098 µM; at human Y2 receptor, 1.61 µM. For the same molecule, the “Two-hour food intake of food-deprived rats, percentage of intake compared to control rats, Mean” value in the assay on food intake was determined as 80%.
Take `Cl.O=S(=O)(NC[C@H]1CC[C@H](CNCc2cccc3ccccc23)CC1)c1ccccc1C(F)(F)F` [Compound 23]: the Ki on human Y1 receptor amounted to 14.5 µM; at human Y4 receptor, 21.5 µM; on human Y5 receptor [2], 0.026 µM; on human Y2 receptor, 0.617 µM. Further, the “Two-hour food intake of food-deprived rats, percentage of intake compared to control rats, Mean” value with food intake was found to be 58%. In addition, the Kb on human Y5 receptor [3] stood at 0.038 µM.
`Cl.Cl.O=[N+]([O-])c1ccccc1S(=O)(=O)NC[C@H]1CC[C@H](CNCc2ccc3ccccc3n2)CC1` [Compound 26]: the Ki at human Y1 receptor came to 23.7 µM; on human Y4 receptor it was 19.3 µM; at human Y2 receptor, 58.2 µM. Besides, the “Two-hour food intake of food-deprived rats, percentage of intake compared to control rats, Mean” value in the assay on food intake worked out at 73%.
“NPY: peptide neurotransmitter neuropeptide Y, 36 amino acids; feeding studies used 300 pmole of porcine NPY i.c.v.”: the “Food intake, NPY” value in assay [1] (300 pmole NPY i.c.v. alone, cumulative intake 4 hours after NPY, mean ± S.E.M.) is 7.4 ± 0.5 g and 6.8 ± 1.0 g and 5.8 ± 0.5 g and 4.9 ± 0.4 g. The “food intake of NPY-stimulated animals compared to vehicles” value in assay [1] (300 pmole i.c.v., p<0.05 Student-Newman-Keuls) was “significantly induce food intake”.
